In patent US12077503B2, “Substituted cyclic amides and their use as herbicides” (FMC CORPORATION, priority 2015, dated 2024):

Columns and labels:
Format in all cases: in vivo
[1] = tested on: pigweed (Amaranthus retroflexus); assay: Test A preemergence; settings: Amaranthus retroflexus, pre-emergence, 240 h; for pest or weed control at 125 g/ha: 125 g ai/ha, Preemergence, visual injury rating after approximately 10 d, read-out: Pigweed plant response rating (0 to 100 scale, 0 is no effect, 100 is complete control); for pest or weed control at 500 g/ha: 500 g ai/ha, preemergence, visual injury rating about 10 d after treatment, 0 to 100 scale (0 no effect, 100 complete control), read-out: Pigweed plant response rating
[2] = tested on: ryegrass, Italian (Italian ryegrass, Lolium multiflorum); assay: Test A preemergence; settings: Lolium multiflorum, pre-emergence, 240 h; for pest or weed control at 125 g/ha: 125 g ai/ha, Preemergence, visual injury rating after approximately 10 d, read-out: Ryegrass, Italian plant response rating (0 to 100 scale, 0 is no effect, 100 is complete control); for pest or weed control at 500 g/ha: 500 g ai/ha, preemergence, visual injury rating about 10 d after treatment, 0 to 100 scale (0 no effect, 100 complete control), read-out: Ryegrass, Italian plant response rating
Outline: (§1)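 Greenhouse, ~10 d after spray; visual injury vs untreated controls, 0 = no effect, 100 = complete control. Preemergence: directed soil spray over planted seeds. Postemergence: plants 2–10 cm, 1–2 leaf stage. Loam/sand blend. Compound in non-phytotoxic solvent with surfactant.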

[3] = tested on: ragweed (common ragweed, Ambrosia elatior); assay: Test A preemergence; settings: Ambrosia artemisiifolia, pre-emergence, 240 h; for pest or weed control at 125 g/ha: 125 g ai/ha, Preemergence, visual injury rating after approximately 10 d, read-out: Ragweed plant response rating (0 to 100 scale, 0 is no effect, 100 is complete control); for pest or weed control at 500 g/ha: 500 g ai/ha, preemergence, visual injury rating about 10 d after treatment, 0 to 100 scale (0 no effect, 100 complete control), read-out: Ragweed plant response rating
Outline: as §1

Kochia (Kochia scoparia) [4] = assay: Test A preemergence; settings: Bassia scoparia, pre-emergence, 240 h; for pest or weed control at 125 g/ha: 125 g ai/ha, Preemergence, visual injury rating after approximately 10 d, read-out: Kochia plant response rating (0 to 100 scale, 0 is no effect, 100 is complete control); for pest or weed control at 500 g/ha: 500 g ai/ha, preemergence, visual injury rating about 10 d after treatment, 0 to 100 scale (0 no effect, 100 complete control), read-out: Kochia plant response rating
Outline: as §1

[5] = tested on: barnyardgrass (Echinochloa crus-galli); assay: Test A preemergence; settings: Echinochloa crus-galli, pre-emergence, 240 h; for pest or weed control at 125 g/ha: 125 g ai/ha, Preemergence, visual injury rating after approximately 10 d, read-out: Barnyardgrass plant response rating (0 to 100 scale, 0 is no effect, 100 is complete control); for pest or weed control at 500 g/ha: 500 g ai/ha, preemergence, visual injury rating about 10 d after treatment, 0 to 100 scale (0 no effect, 100 complete control), read-out: Barnyardgrass plant response rating
Outline: as §1

[6] = tested on: giant foxtail (Setaria faberii); assay: Test A preemergence; settings: Setaria faberi, pre-emergence, 240 h; for pest or weed control at 125 g/ha: 125 g ai/ha, Preemergence, visual injury rating after approximately 10 d, read-out: Foxtail, Giant plant response rating (0 to 100 scale, 0 is no effect, 100 is complete control); for pest or weed control at 500 g/ha: 500 g ai/ha, preemergence, visual injury rating about 10 d after treatment, 0 to 100 scale (0 no effect, 100 complete control), read-out: Foxtail, Giant plant response rating
Outline: as §1

[7] = tested on: pigweed (Amaranthus retroflexus); assay: Test A postemergence; settings: Amaranthus retroflexus, post-emergence, 240 h, 125 g ai/ha, Postemergence; visual injury after approximately 10 d; 0 to 100 scale where 0 is no effect and 100 is complete control; read-out: Plant response rating, Pigweed
Outline: as §1

[8] = tested on: wheat (Triticum aestivum); assay: Test A postemergence; settings: Triticum aestivum, post-emergence, 240 h, 125 g ai/ha, Postemergence; visual injury after approximately 10 d; 0 to 100 scale where 0 is no effect and 100 is complete control; read-out: Plant response rating, Wheat
Outline: as §1

[9] = tested on: ryegrass, Italian (Italian ryegrass, Lolium multiflorum); assay: Test A postemergence; settings: Lolium multiflorum, post-emergence, 240 h, 125 g ai/ha, Postemergence; visual injury after approximately 10 d; 0 to 100 scale where 0 is no effect and 100 is complete control; read-out: Plant response rating, Ryegrass, Italian
Outline: as §1

[10] = tested on: Galium (catchweed bedstraw, Galium aparine); assay: Test A postemergence; settings: Galium, post-emergence, 240 h, 125 g ai/ha, Postemergence; visual injury after approximately 10 d; 0 to 100 scale where 0 is no effect and 100 is complete control; read-out: Plant response rating, Galium
Outline: as §1

[11] = tested on: blackgrass (Alopecurus myosuroides); assay: Test A postemergence; settings: Alopecurus myosuroides, post-emergence, 240 h, 125 g ai/ha, Postemergence; visual injury after approximately 10 d; 0 to 100 scale where 0 is no effect and 100 is complete control; read-out: Plant response rating, Blackgrass
Outline: as §1

[12] = tested on: ragweed (common ragweed, Ambrosia elatior); assay: Test A postemergence; settings: Ambrosia artemisiifolia, post-emergence, 240 h, 125 g ai/ha, Postemergence; visual injury after approximately 10 d; 0 to 100 scale where 0 is no effect and 100 is complete control; read-out: Plant response rating, Ragweed
Outline: as §1

Kochia (Kochia scoparia) [13] = assay: Test A postemergence; settings: Bassia scoparia, post-emergence, 240 h, 125 g ai/ha, Postemergence; visual injury after approximately 10 d; 0 to 100 scale where 0 is no effect and 100 is complete control; read-out: Plant response rating, Kochia
Outline: as §1

corn (Zea mays) = assay: Test A postemergence; settings: Zea mays, post-emergence, 240 h, 125 g ai/ha, Postemergence; visual injury after approximately 10 d; 0 to 100 scale where 0 is no effect and 100 is complete control
Outline: as §1

[14] = tested on: barnyardgrass (Echinochloa crus-galli); assay: Test A postemergence; settings: Echinochloa crus-galli, post-emergence, 240 h, 125 g ai/ha, Postemergence; visual injury after approximately 10 d; 0 to 100 scale where 0 is no effect and 100 is complete control; read-out: Plant response rating, Barnyardgrass
Outline: as §1

| Compound | pest or weed control at 125 g/ha [1] | pest or weed control at 500 g/ha [1] | pest or weed control at 125 g/ha [2] | pest or weed control at 500 g/ha [2] | pest or weed control at 125 g/ha [3] | pest or weed control at 500 g/ha [3] | pest or weed control at 125 g/ha (Kochia (Kochia scoparia) [4]) | pest or weed control at 500 g/ha (Kochia (Kochia scoparia) [4]) | pest or weed control at 125 g/ha [5] | pest or weed control at 500 g/ha [5] | pest or weed control at 125 g/ha [6] | pest or weed control at 500 g/ha [6] | pest or weed control at 125 g/ha [7] | plant injury at 125 g/ha [8] | pest or weed control at 125 g/ha [9] | pest or weed control at 125 g/ha [10] | pest or weed control at 125 g/ha [11] | pest or weed control at 125 g/ha [12] | pest or weed control at 125 g/ha (Kochia (Kochia scoparia) [13]) | Corn plant response rating (crop injury, 0 = no effect, 100 = complete kill) at 125 g/ha (corn (Zea mays)) | further results |
| --- | --- | --- | --- | --- | --- | --- | --- | --- | --- | --- | --- | --- | --- | --- | --- | --- | --- | --- | --- | --- | --- |
| Cc1cc([C@H]2CN(C)C(=O)[C@@H]2C(=O)Nc2ccccc2S(C)(=O)=O)ccc1Cl [Compound 944] | 0% | 20% | 0% | 0% | 50% | 50% | 0% | 70% | 90% | 90% | 90% | 90% | 30% | 40% | 30% | 20% | 60% | 40% | 0% | 30% | pest or weed control at 125 g/ha [14]: 80% |
| O=C1NC[C@H](c2cc(C(F)(F)F)ccn2)[C@H]1C(=O)Nc1ccccc1F [Compound 948] | 0% | 0% | 0% | 0% | 0% | 0% | 0% | 0% | 70% | 90% | 70% | 90% | 0% | 0% | 0% | 0% | 0% | 0% | 0% | 0% | pest or weed control at 125 g/ha [14]: 70% |
| CC(C)Oc1ccc([C@H]2CN(C)C(=O)[C@@H]2C(=O)Nc2ccc(F)cc2F)cc1 [Compound 954] | 0% | 0% | 0% | 0% | 0% | 0% | 0% | 20% | 70% | 90% | 90% | 90% | 0% | 0% | 0% | 0% | 0% | 0% | 0% | 0% | pest or weed control at 125 g/ha [14]: 60% |
| CCOc1cccc([C@H]2CN(C)C(=O)[C@@H]2C(=O)Nc2cccc(F)c2F)c1 [Compound 956] | 0% | 0% | 40% | 90% | 20% | 80% | 90% | 90% | 100% | 100% | 100% | 100% | 0% | 30% | 50% | 40% | 40% | 20% | 30% | 50% | pest or weed control at 125 g/ha [14]: 90% |
| CN1C[C@H](c2csc(C(F)(F)F)c2)[C@@H](C(=O)Nc2cccc(F)c2F)C1=O [Compound 959] | 0% | 30% | 20% | 60% | 70% | 70% | 70% | 90% | 90% | 100% | 90% | 100% | 0% | 20% | 30% | 40% | 30% | 0% | 50% | 30% | pest or weed control at 125 g/ha [14]: 90% |
| CN1C[C@H](c2cc(C(F)(F)F)cs2)[C@@H](C(=O)Nc2ccccc2F)C1=O [Compound 962] | 0% | 50% | 0% | 30% | 20% | 30% | 50% | 70% | 90% | 90% | 90% | 90% | 0% | 30% | 20% | 30% | 20% | 0% | 20% | 0% | pest or weed control at 125 g/ha [14]: 90% |
